Laboratory results: BindingDB's records for doi:10.1074/jbc.M109.089946 (Merck Research Laboratories, 2010)

How the values were obtained:
[1] = target: T1, 3-phosphoinositide-dependent protein kinase 1 (Homo sapiens, UniProt O15530); test: TR-Fret Assay
T1 sequence (O15530 whole entry): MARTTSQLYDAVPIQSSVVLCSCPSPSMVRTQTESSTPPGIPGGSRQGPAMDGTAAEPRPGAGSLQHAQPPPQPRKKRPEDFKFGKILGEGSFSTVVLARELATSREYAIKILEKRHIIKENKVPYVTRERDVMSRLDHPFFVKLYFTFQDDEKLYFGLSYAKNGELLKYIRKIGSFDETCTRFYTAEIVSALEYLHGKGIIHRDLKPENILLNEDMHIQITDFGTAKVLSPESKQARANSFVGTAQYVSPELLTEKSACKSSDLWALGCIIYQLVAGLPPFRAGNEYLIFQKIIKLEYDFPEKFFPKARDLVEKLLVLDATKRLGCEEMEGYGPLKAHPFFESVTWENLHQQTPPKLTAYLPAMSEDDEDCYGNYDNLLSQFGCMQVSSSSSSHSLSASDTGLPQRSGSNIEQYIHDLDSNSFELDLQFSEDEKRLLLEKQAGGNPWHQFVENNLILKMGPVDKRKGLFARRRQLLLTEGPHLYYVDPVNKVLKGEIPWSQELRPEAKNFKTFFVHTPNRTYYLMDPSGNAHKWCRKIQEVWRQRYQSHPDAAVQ
Text: 1536-Well TR-Fret uHTS assay PDK1-tide1 peptide substrate.

[2] = target: 3-phosphoinositide-dependent protein kinase 1 (Homo sapiens) (UniProt O15530); test: 384-Well TR-Fret assay using AKT-tide peptide substrate.

Row | SMILES | IC50 [1] [µM] | IC50 [2] [µM]
1 | CCCCCNC(=O)O[C@@H]1CC[C@@H]2[C@@H](C(=O)Nc3ccc(N(C)C)cc3)C[C@H]1N2CCC(C)C [Alkaloid 2] | 18 | > 30
2 | Cc1[nH]nc2c1c(=O)n(CCCN)c1ccc(Br)cc21 [Compound # 1] | 0.011 | 0.014
3 | CC(C)(C)c1nc2c3ccc(F)cc3c3c(=O)[nH]ccc3c2[nH]1 [Jak Inhibitor 1] | 0.02 | 0.028
